The source of these data is PMC7993833, “EDP-938, a novel nucleoprotein inhibitor of respiratory syncytial virus, demonstrates potent antiviral activities in vitro and in a non-human primate model” (PLoS Pathogens, 2021).

In one data set the test system is RSV-A M37. Briefly: RT-qPCR assay, RSV-A M37 in HEp-2 cells. It is filed as cell-based. The conditions noted are these: human respiratory syncytial virus. Here is the method:
HEp-2, Vero, and BHK were seeded at 8,000 cells per well (cpw) in growth medium (Dulbecco’s Modified Eagle Medium (DMEM) with 1% GlutaMAX, 1% Penicillin/Streptomycin (P/S), 1% Non-Essential Amino Acids (NEAA), 10% Fetal Bovine Serum (FBS)) or (Minimum Essential Medium (MEM) with 10% FBS, 1% NEAA, 1% P/S) or (Eagle’s Minimum Essential Medium with L-Glutamine, with 10% FBS, 1% P/S) respectively. A549 seeded at 3,000 cpw in F-12K Kaighn’s Modification nutrient mixture with 10% FBS, 1% NEAA, 1% P/S. Cells seeded at time of infection in 96-well plates, final well volume 100μL. Compounds suspended in DMSO, serially diluted and added to wells at 0.5% final DMSO concentration. Viral stocks stabilized with 25% sucrose, previously titered using plaque assay, were added at desired MOI. Sucrose added to cells-only control wells to match percent added with virus. Unless otherwise noted, RSV-A strains were tested at 0.1 MOI and incubated for 5 days in a 37°C, 5% CO2 humidified incubator, and RSV-B at 0.5 MOI for 6 days. Cytopathic effect (CPE) determined using ATPlite (Perkin Elmer) measured with Envision luminometer. For RT-qPCR, RNA was extracted from whole well using Ambion RNAqueous-96 Automated Kit, and RT-qPCR run using Applied Biosystems TaqMan RNA-to-CT 1-Step Kit. […] All EC50s were calculated using the XLFit four-parameter logistic model 200 in Microsoft Excel.

Data set [1] relates to RSV-A Long. As to the kind of experiment: RT-qPCR assay, RSV-A Long in Vero cells. It is filed as cell-based. As to conditions: human respiratory syncytial virus.
Data set [2] deals with RSV-A Long. Briefly: RT-qPCR assay, RSV-A Long in primary HBECs. It is filed as cell-based. The conditions noted are these: human respiratory syncytial virus, primary HBEC. In general terms: In qPCR the cycle at which signal appears reflects the starting amount.
Data set [3] has as its system RSV-A and RSV-B laboratory strains. Briefly: CPE assay, RSV laboratory strains across primate cell lines. It is filed as cell-based. As to conditions: human respiratory syncytial virus, in Primates, read-out: EC50 values, inhibition of CPE (range over strains and cells). The method, then:
(§1) The activity of EDP-938 against both RSV-A and RSV-B was evaluated in vitro against multiple laboratory strains commonly used for antiviral screens in HEp-2 cells, human adenocarcinomic alveolar basal epithelial cells (A549), monkey kidney-derived cells (Vero), and Baby Hamster Kidney cells (BHK). Serial dilutions of the compound were added to cells infected with RSV-A at a MOI of 0.1 or RSV-B at an MOI of 0.5 and treated for 5 or 6 days, respectively.
(§2) HEp-2, Vero, and BHK were seeded at 8,000 cells per well (cpw) in growth medium (Dulbecco’s Modified Eagle Medium (DMEM) with 1% GlutaMAX, 1% Penicillin/Streptomycin (P/S), 1% Non-Essential Amino Acids (NEAA), 10% Fetal Bovine Serum (FBS)) or (Minimum Essential Medium (MEM) with 10% FBS, 1% NEAA, 1% P/S) or (Eagle’s Minimum Essential Medium with L-Glutamine, with 10% FBS, 1% P/S) respectively. A549 seeded at 3,000 cpw in F-12K Kaighn’s Modification nutrient mixture with 10% FBS, 1% NEAA, 1% P/S. Cells seeded at time of infection in 96-well plates, final well volume 100μL. Compounds suspended in DMSO, serially diluted and added to wells at 0.5% final DMSO concentration. […] Cytopathic effect (CPE) determined using ATPlite (Perkin Elmer) measured with Envision luminometer. […] All EC50s were calculated using the XLFit four-parameter logistic model 200 in Microsoft Excel.

Data set [4] has the same test system. Briefly: RT-qPCR assay, RSV laboratory strains across primate cell lines. The conditions noted are these: human respiratory syncytial virus, in Primates, read-out: EC50 values, reduction in viral load by RT-qPCR (range over strains and cells). It counts as cell-based. Here is the method:
as §1, §2

The test system of another data set is A549 cells. As to the kind of experiment: Cytotoxicity (ATPlite) in A549 cells. It is filed as cell-based, human. As to conditions: at up to 50 μM, 3 days. The method, then: (§3) HEp-2, A549, and CHO cells were seeded at 3,000 cpw in their respective growth medium. CHO growth medium used was RPMI medium 1640 with 10% FBS, 1% P/S, 1% GlutaMAX. HEK-293 cells seeded at 10,000 cpw in DMEM growth medium. Undifferentiated HBECs were seeded in collagen-coated 96-well plates at 7,500 cpw in appropriate growth medium. Compound added and incubated for 3 days (4 days for HBECs) as described above. Plates read with ATPlite and CC50 calculated as EC50s as described above. SI = CC50/EC50 within a cell line.
A general note: In ATP-based viability assays light output follows the ATP content of the culture.

For another data set, the system named is HBEC. As to the kind of experiment: Cytotoxicity (ATPlite) in primary HBECs. It is filed as cell-based, human. Here is the method: as §3
Data set [5] is described as follows: Cytotoxicity (ATPlite) in CHO cells. As to conditions: Chinese hamster, read-out: half-maximal cytotoxic concentration (CC50). It counts as cell-based. The method, then:
as §3

The subject of another data set is RSV-B clinical isolates. As to the kind of experiment: Susceptibility of USA-derived RSV-B clinical isolates. It counts as cell-based. The conditions noted are these: human respiratory syncytial virus. The method, then: Serial dilutions of the compound were added to cells infected with RSV-A isolates at an MOI of 0.1 (except for isolate 629-9-2 at an MOI of 0.01) or RSV-B isolates at an MOI of 0.5 (expect for isolate 629-24/2007 at an MOI of 0.0044) and were treated for 5 or 6 days, respectively. […] This is consistent with the fact that the viral N protein, which is the putative target of the antiviral effect of EDP-938, is the most conserved RSV protein [11].
as §2, with “Excel. […]” for “Excel.”

Data set [6] concerns RSV-A Long. As to the kind of experiment: In vitro combination study (CPE, Loewe additivity, CalcuSyn). It counts as cell-based, respiratory syncytial virus. The method, then:
The combination effect of EDP-938 with other RSV inhibitors of different mechanisms/targets was investigated in vitro. RSV-A Long infected HEp-2 cells were treated with various concentrations of EDP-938 either alone or in combination with the fusion inhibitor GS-5806, non-nucleoside L polymerase inhibitor AZ-27, nucleoside inhibitor ALS-8112 [38], ribavirin, or palivizumab. The combination of two compounds always led to a greater inhibition than a single agent alone.
To determine whether the effect of the combination was synergistic, additive or antagonistic, the data were analyzed by the Loewe additivity model using Calcusyn software, which gave a Combination Index (CI) value at various effective concentrations of the compounds. […] As an experimental control, adding EDP-938 to itself was additive. For details see S4 Table.
As described above with 8,000 HEp-2 cpw, 0.1 MOI RSV-A Long, 5-day endpoint, and CPE readout. Compounds added in serial 1.3-fold 6-point dilutions across both X- and Y-axes of plate. Plates run in quadruplicate with one uninfected plate for cytotoxicity. Combination indexes calculated using Loewe additivity model using CalcuSyn software from Biosoft.

“Also recorded” adds a separate entry of the source. Some results are limits rather than exact numbers.

One may read the EC50 as the concentration needed to bring the measured effect to its halfway point. The EC90 is the concentration needed for an effect of 90%. Take `O=C1Nc2ccccc2C(c2ccccc2)=N[C@@H]1Nc1nnc(-c2ncc(C(F)(F)F)cc2N2CCOCC2)o1` [EDP-938]: the EC50 with RSV-A M37 was 54 ± 5 nM; in the data set on RSV-A Long [1] it was 79 ± 12 nM; in the data set on RSV-A Long [2] (144 h, RSV-A Long MOI 0.1, 6 days) it was 21 ± 17 nM; in [3], 28 to 72 nM; in data set [4], 54 to 110 nM; in the data set with RSV-B clinical isolates, 121 nM. In addition, the EC90 in the data set on RSV-A M37 was 85 ± 21 nM; in the data set with RSV-A Long [1], 118 ± 25 nM; in the data set with RSV-A Long [2] (RSV-A Long), 29 ± 23 nM. In addition, the cytotoxicity entry with A549 cells is listed as “no significant cytotoxicity”; with HBEC (HBEC, at up to 50 μM, 4 days), “no significant cytotoxicity”. Also, the selectivity index with HBEC (HBEC cells, SI = CC50/EC50 within a cell line) is reported as > 2,380. In addition, the CC50 at 3 days in [5] was about 27000 nM. Also, the “combination effect (Combination Index)” value is “additive; also recorded: additivity” in the data set on RSV-A Long [6] (EDP-938 added to itself, CI 0.9–1.1 additivity, <0.9 synergy, >1.1 antagonism); “moderate levels of synergy” in the data set with RSV-A Long [6] (EDP-938 combined with ALS-8112, AZ-27, GS-5806 or palivizumab); “additivity” in the data set on RSV-A Long [6] (EDP-938 combined with ribavirin).
